{"source": "patent US10544178B2", "about": "“Metal complex compound and preparing method and usage thereof” (National Changhua University of Education, priority 2018, dated 2020)", "key": {"[1]": {"test_system": "PC-3 prostatic cancer cell", "protocol": "Pharmacology Research: cytotoxicity research upon PC-3 prostatic cancer and DU145 breast cancer\nHuman cell HRMPC performing cell activity of PC-3 prostatic cancer and DU145 breast cancer is placed into PRMI1640 culture medium to be cultured under a temperature of 37° C. in a 5% CO2/95% air. The PRMI1640 culture medium contains 10% FBS and penicillin (100 U/ml)/streptomycin (100 U/ml).\nSubsequently, the cell survivability is quantified through colorimetry (Sulforhodamine B Assay)."}}}
{"substance": "para-methylisopropylphenylchloride-1-(para-diethylaminophenyl)-3-[(1-methyl-3-indazolyl)imino]-1-oxypropylruthenium [Embodiment 6]", "values": [{"measurement": "IC50", "setting": "[1]", "value": "> 30", "unit": "µM"}, {"measurement": "IC50", "setting": "DU145 breast cancer cell", "value": "> 30", "unit": "µM"}]}
{"substance": "para-methylisopropylphenylchloride-1-carbonyl-3-[(2,6-diisopropyl)n-phenyl]-1-phenyl-2-butyleneruthenium [Embodiment 3]", "values": [{"measurement": "IC50", "setting": "[1]", "value": "2.39 ± 0.13", "unit": "µM"}, {"measurement": "IC50", "setting": "DU145 breast cancer cell", "value": "5.37 ± 0.06", "unit": "µM"}]}
{"substance": "para-methylisopropylphenylchloride-1-carbonyl-3-[(2-methoxyl) n-phenyl]-1-phenyl-2-butyleneruthenium [Embodiment 2]", "values": [{"measurement": "IC50", "setting": "[1]", "value": "5.68 ± 0.12", "unit": "µM"}, {"measurement": "IC50", "setting": "DU145 breast cancer cell", "value": "14.3 ± 0.28", "unit": "µM"}]}
{"substance": "para-methylisopropylphenylchloride-1-carbonyl-3-n-phenyl-1-phenyl-2-butyleneruthenium [Embodiment 1]", "values": [{"measurement": "IC50", "setting": "[1]", "value": "5.66 ± 0.2", "unit": "µM"}, {"measurement": "IC50", "setting": "DU145 breast cancer cell", "value": "9.31 ± 1.48", "unit": "µM"}]}
{"substance": "para-methylisopropylphenylchloride-2-(2-indazolyl)1-phenyl-1-oxyethylruthenium [Embodiment 7]", "values": [{"measurement": "IC50", "setting": "DU145 breast cancer cell", "value": "> 30", "unit": "µM"}]}
{"substance": "para-methylisopropylphenylchloride-2-[1-(2-naphthyl)azomethine]phenoxyruthenium [Embodiment 5]", "values": [{"measurement": "IC50", "setting": "[1]", "value": "4.58 ± 0.32", "unit": "µM"}, {"measurement": "IC50", "setting": "DU145 breast cancer cell", "value": "14.2 ± 0.35", "unit": "µM"}]}
{"substance": "para-methylisopropylphenylchloride-2-[1-para-tolueneimino]phenoxyruthenium [Embodiment 4]", "values": [{"measurement": "IC50", "setting": "[1]", "value": "3.01 ± 1.17", "unit": "µM"}, {"measurement": "IC50", "setting": "DU145 breast cancer cell", "value": "13.1 ± 0.95", "unit": "µM"}]}
